We go through three molecules from ChEMBL document CHEMBL1909046, “DrugMatrix in vitro pharmacology data”.

Structures are written as SMILES.

The target of assay [1] is T1, Glucocorticoid receptor (Homo sapiens, UniProt P04150).
T1 sequence (P04150 whole entry): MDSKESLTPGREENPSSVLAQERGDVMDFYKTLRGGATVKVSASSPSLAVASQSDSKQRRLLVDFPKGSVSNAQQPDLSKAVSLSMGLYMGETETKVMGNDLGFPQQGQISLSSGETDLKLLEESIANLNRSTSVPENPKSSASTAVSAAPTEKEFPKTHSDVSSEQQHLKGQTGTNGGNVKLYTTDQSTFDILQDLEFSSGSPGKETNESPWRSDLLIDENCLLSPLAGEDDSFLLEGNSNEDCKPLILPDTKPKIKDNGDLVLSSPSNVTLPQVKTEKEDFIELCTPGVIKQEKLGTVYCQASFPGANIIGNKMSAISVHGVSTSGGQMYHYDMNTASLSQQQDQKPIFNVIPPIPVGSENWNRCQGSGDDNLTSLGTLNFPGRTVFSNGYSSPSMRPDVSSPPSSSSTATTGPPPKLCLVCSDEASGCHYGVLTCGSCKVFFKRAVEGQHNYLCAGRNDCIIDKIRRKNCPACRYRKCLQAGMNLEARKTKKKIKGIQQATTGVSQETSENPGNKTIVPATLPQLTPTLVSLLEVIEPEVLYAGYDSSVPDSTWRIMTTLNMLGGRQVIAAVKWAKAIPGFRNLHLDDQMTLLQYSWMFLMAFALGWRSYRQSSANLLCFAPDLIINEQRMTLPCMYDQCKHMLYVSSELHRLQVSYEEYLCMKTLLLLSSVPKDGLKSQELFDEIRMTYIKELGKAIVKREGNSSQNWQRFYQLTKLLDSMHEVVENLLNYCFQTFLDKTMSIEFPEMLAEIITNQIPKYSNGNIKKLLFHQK
The experiment in a line: biochemical.

Assay [2] deals with Cytochrome P450 3A4 (Homo sapiens, UniProt P08684).
Chain of Cytochrome P450 3A4 (P08684 whole entry): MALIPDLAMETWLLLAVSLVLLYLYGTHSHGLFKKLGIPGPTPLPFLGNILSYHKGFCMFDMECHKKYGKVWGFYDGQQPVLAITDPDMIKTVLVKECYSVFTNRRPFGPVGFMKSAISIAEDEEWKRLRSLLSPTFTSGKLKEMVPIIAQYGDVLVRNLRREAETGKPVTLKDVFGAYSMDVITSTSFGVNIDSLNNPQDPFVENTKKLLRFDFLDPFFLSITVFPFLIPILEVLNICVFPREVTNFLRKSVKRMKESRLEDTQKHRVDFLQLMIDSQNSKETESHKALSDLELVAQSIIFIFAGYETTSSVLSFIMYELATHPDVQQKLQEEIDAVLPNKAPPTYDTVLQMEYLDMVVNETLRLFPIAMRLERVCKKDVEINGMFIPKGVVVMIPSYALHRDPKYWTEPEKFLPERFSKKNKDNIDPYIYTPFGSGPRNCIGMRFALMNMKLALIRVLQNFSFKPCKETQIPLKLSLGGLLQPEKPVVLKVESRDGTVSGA

Broadly, the IC50 is the concentration needed to halve the response being measured. One may read the Ki as a measure of affinity in units of concentration, obtained from inhibition or displacement. The low end stands for tighter binding, the high end for weaker binding. Consider `Clc1ccccc1C(c1ccccc1)(c1ccccc1)n1ccnc1` [CLOTRIMAZOLE], for which, in assay [1], the midpoint of inhibition, the IC50, lay at 3260 nM and the Ki was determined as 1480 nM. In assay [1], `CC(=O)S[C@@H]1CC2=CC(=O)CC[C@]2(C)[C@H]2CC[C@@]3(C)[C@@H](CC[C@@]34CCC(=O)O4)[C@H]12` [SPIRONOLACTONE] came in with an IC50 of 1900 nM and an inhibition constant Ki of 865 nM. With `C=CC[C@@H]1/C=C(\C)C[C@H](C)C[C@H](OC)[C@H]2O[C@@](O)(C(=O)C(=O)N3CCCC[C@H]3C(=O)O[C@H](/C(C)=C/[C@@H]3CC[C@@H](O)[C@H](OC)C3)[C@H](C)[C@@H](O)CC1=O)[C@H](C)C[C@@H]2OC` [TACROLIMUS ANHYDROUS], the IC50 in assay [2] turned out to be 1000 nM.
